In PubChem BioAssay AID1963436 (Molecular Pharmacology Branch, DTP, NCI, 2024):
Several values for one entry are separate records, joined by “and”; a condition that tells them apart may be missing. Identical values can stand only once.

Test system: OVCAR-5 complex spheroid (HUVEC/MSC), viability % T/C
Experiment: Anticancer human tumor OVCAR-5 cell line growth inhibition [Asc];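 note: spheroids exposed to agents for 7 days before readout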;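 for viability, T/C: 100% = DMSO vehicle-treated wells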
Details: for viability, T/C: stronger effect = lower value
In short: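 Stromal components (HUVEC and hMSC) are co-assembled with the cancer cells into multicellular spheroids. Drugs are then added singly or paired, at concentrations falling by half-log increments from a clinically achievable maximum, capped at 10 microM without known Cmax.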

Cc1nc(N2CCC3(CC2)COC(C)C3N)c(CO)nc1Sc1ccnc(N)c1Cl (configuration not stated) + CCN1C(C(=O)NC23CCC(C(=O)O)(CC2)CC3)C(c2cccc(Cl)c2F)C2(C(=O)Nc3cc(Cl)ccc32)C12CCCCC2
IC50 (curve of first compound, second compound 0.03 µM): > 3 µM | IC50 (curve of first compound, second compound 0.0949 µM): > 3 µM | IC50 (curve of first compound, second compound 0.3 µM): > 3 µM | IC50 (curve of first compound, second compound 0.949 µM): > 3 µM | IC50 (curve of first compound, second compound 3 µM): > 3 µM | viability, T/C (second compound 0.03 µM, first compound 0.00949 µM): 104% | viability, T/C (second compound 0.03 µM, first compound 0.03 µM): 101% | viability, T/C (second compound 0.03 µM, first compound 0.0949 µM): 79.8% | viability, T/C (second compound 0.03 µM, first compound 0.3 µM): 79.8% | viability, T/C (second compound 0.03 µM, first compound 0.949 µM): 71.4% | viability, T/C (second compound 0.03 µM, first compound 3 µM): 60.6% | viability, T/C (second compound 0.0949 µM, first compound 0.00949 µM): 108% | viability, T/C (second compound 0.0949 µM, first compound 0.03 µM): 97.1% | viability, T/C (second compound 0.0949 µM, first compound 0.0949 µM): 89.4% | viability, T/C (second compound 0.0949 µM, first compound 0.3 µM): 82% | viability, T/C (second compound 0.0949 µM, first compound 0.949 µM): 70.8% | viability, T/C (second compound 0.0949 µM, first compound 3 µM): 56% | viability, T/C (second compound 0.3 µM, first compound 0.00949 µM): 112% | viability, T/C (second compound 0.3 µM, first compound 0.03 µM): 105% | viability, T/C (second compound 0.3 µM, first compound 0.0949 µM): 86.1% | viability, T/C (second compound 0.3 µM, first compound 0.3 µM): 72.4% | viability, T/C (second compound 0.3 µM, first compound 0.949 µM): 64.2% | viability, T/C (second compound 0.3 µM, first compound 3 µM): 60.8% | viability, T/C (second compound 0.949 µM, first compound 0.00949 µM): 107% | viability, T/C (second compound 0.949 µM, first compound 0.03 µM): 105% | viability, T/C (second compound 0.949 µM, first compound 0.0949 µM): 96.3% | viability, T/C (second compound 0.949 µM, first compound 0.3 µM): 73.6% | viability, T/C (second compound 0.949 µM, first compound 0.949 µM): 69.5% | viability, T/C (second compound 0.949 µM, first compound 3 µM): 70.3% | viability, T/C (second compound 3 µM, first compound 0.00949 µM): 104% | viability, T/C (second compound 3 µM, first compound 0.03 µM): 110% | viability, T/C (second compound 3 µM, first compound 0.0949 µM): 99.3% | viability, T/C (second compound 3 µM, first compound 0.3 µM): 79% | viability, T/C (second compound 3 µM, first compound 0.949 µM): 68.4% | viability, T/C (second compound 3 µM, first compound 3 µM): 65.9%

CCN1CCN(Cc2ccc(Nc3ncc(F)c(-c4cc(F)c5nc(C)n(C(C)C)c5c4)n3)nc2)CC1
viability, T/C (compound 0.00316 µM): 96.2% and 105% and 97.1% | viability, T/C (compound 0.01 µM): 89% and 87.6% and 79.2% | viability, T/C (compound 0.0316 µM): 70.1% and 70.8% and 77.2% | viability, T/C (compound 0.1 µM): 66.8% and 66.6% and 69.3% | viability, T/C (compound 0.316 µM): 71.2% and 64.5% and 68.4% | viability, T/C (compound 1 µM): 60.4% and 55.5% and 60.6% | IC50 (curve of compound): > 1 µM
